Laboratory results taken from patent US6365632B1, “Treatment of orthostatic hypotension” (Knoll Pharmaceuticals Company, priority 1999, dated 2002).

Columns and labels:
[1] = target: [3H] Noradenaline reuptake in rat brain tissue; test: in vitro [3H]noradrenaline reuptake inhibition in rat brain tissue; type: biochemical; conditions: means of ≧3 separate determinations
[2] = target: [3H] Dopamine reuptake in rat brain tissue; test: in vitro [3H]dopamine reuptake inhibition in rat brain tissue; type: biochemical; conditions: means of ≧3 separate determinations

Compound | Ki [1] [nM] | Ki [2] [nM]
CC(NC(C)(C)C)C(=O)c1cccc(Cl)c1 (stereo not shown) [Bupropion] | 2590 | 409
COc1ccc(C(CN(C)C)C2(O)CCCCC2)cc1 (stereo not shown) [Venlafaxine] | 196 | 2590
